Measurements: US20250177394A1, “COMBINATIONS OF CTPS1 AND BCL2 INHIBITORS FOR CANCER” (Step Pharma S.A.S., priority 2022, published 2025)

Experiments:
human CTPS1 = human CTPS1 (Homo sapiens (Human), UniProt P17812); experiment: Human CTPS1 enzyme inhibition, ADP-Glo Max assay; type: biochemical; settings: Human CTPS1 Enzyme Inhibition data
Experimental: The enzyme inhibitory activities of compounds CTPS1-IA and CTPS1-IB against CTPS1 were determined using the ADP-Glo™ Max assay (Promega, UK).
Assays for human CTPS1 were performed in 1× assay buffer containing 50 mM Tris, 10 mM MgCl2, 0.01% Tween-20, pH to 8.0 accordingly. Finally, immediately before use, L-cysteine was added to the 1× assay buffer to a final concentration of 2 mM. All reagents are from Sigma-Aldrich unless specified otherwise. Human full length active C-terminal FLAG-His8-tag CTPS1 (UniProtKB—P17812, CTPS[1-591]-[…], SEQ ID NO: 1) was obtained from Proteros biostructures GmbH.
3× human CTPS1 protein was prepared in 1× assay buffer to the final working protein concentration required for the reaction. […] The enzymatic reaction was then initiated by addition of a 2 uL per well volume of a pre-mixed substrate mix (UltraPure ATP from ADP-Glo™ Max kit (0.31 mM), GTP (0.034 mM), UTP (0.48 mM) and L-glutamine (0.186 mM)) and the mixture was incubated for an appropriate amount of time within the determined linear phase of the reaction at 25° C. under sealed plate conditions with constant agitation at 500 revolutions per minute (rpm). ADP-Glo™ Max reagent was added for 60 minutes (6 μL per well) and subsequently ADP-Go™ Max development reagent was added for 60 minutes (12 uL per well) prior to signal detection in a microplate reader (EnVision® Multilabel Reader, Perkin Elmer). […]

human CTPS1 versus CTPS2 = experiment: Human CTPS1 versus CTPS2 selectivity assessment by RapidFire/MS; type: biochemical; settings: fold selectivity between CTPS1 and CTPS2
Experimental: The enzyme inhibitory activities against each target isoform of interest were determined for compounds using an optimised RapidFire high-throughput mass spectrometry (RF/MS) assay format. RF/MS assays for both human CTPS1 and CTPS2 were performed in assay buffer consisting of 50 mM HEPES (Merck), 20 mM MgCl2, 5 mM KCl, 1 mM DTT, 0.01% Tween-20, pH to 8.0 accordingly. Human full-length active C-terminal FLAG-His-tag CTPS1 (UniProtKB—P17812, CTPS[1-591]-[…], SEQ ID NO: 1) was obtained from Proteros biostructures GmbH. Human full length active C-terminal FLAG-His-Avi tagged CTPS2 (UniProtKB—Q9NRF8, CTPS2 [1-586]-[…], SEQ ID NO: 2) was obtained from Harker Bio.
Human CTPS (1 or 2) protein was prepared in 1× assay buffer to the final working protein concentration required for the reaction. A 2 uL volume per well of 2×CTPS (1 or 2) protein was mixed with 40 nL of compound using acoustic (ECHO) delivery and incubated for 10 minutes at 25° C. […] Each mixture was incubated for an appropriate amount of time per isoform within the determined linear phase of the reaction at 25° C. […]
In all cases, the enzyme converts UTP to CTP. […] Readout for data analysis was calculated as the ratio between the peak area of the product CTP and the internal standard ^13C9-^15N3-CTP. […]
Fold selectivity between CTPS1 and CTPS2 was subsequently calculated according to the following equation: […]

[1] = test system: human mantle cell lymphoma cell lines; experiment: RNA sequencing after exposure to CTPS1 inhibitor; type: cell-based; settings: 24 hour exposure at IC50 versus control
Experimental: RNA was obtained from cancer cell lines treated with CTPS1-IA at IC50 or control for 24 hours. Libraries were prepared from 10 ng total RNA. mRNA poly(A) tails were tagged with universal adapters, sample-specific barcodes and unique molecular identifiers using template switching reverse transcriptase. Barcoded cDNAs from multiple samples were then pooled, amplified and tagmented using a transposon-fragmentation approach which enriches for 3′ ends of cDNA. A library of 350-800 bp length was run on an Illumina NovaSeq 6000 using NovaSeq 6000 SP Reagent Kit 100 cycles (ref #20027464). Raw fastq pairs used for analysis matched the following criteria: the 16 bases of the first read correspond to 6 bases for a sample-specific barcode and 10 bases for a unique molecular identifier. The second read (58 bases) corresponds to the captured poly(A) RNAs sequence. Demultiplexing of these fastq pairs was performed to generate one single-end fastq for each of the 96 samples. fastq files were then aligned with bwa to reference mRNA sequences and the mitochondrial genomic sequence (UCSC). DGE profiles were generated by parsing the alignment files (.bam) and counting for each sample the number of unique molecular identifiers associated with each RefSeq gene. Reads aligned on multiple genes, containing more than one mismatch with the reference sequence, or containing a polyA pattern were discarded. […]

[2] = test system: human mantle cell lymphoma cell line; experiment: Western blot after exposure to CTPS1 inhibitor; type: cell-based; settings: 24 hour exposure versus control; GAPDH loading control
Experimental: Cells were incubated on ice for 40 minutes with lysis buffer then centrifuged at 11000 rpm for 30′. Total protein extracts were collected from supernatants and protein concentrations determined using a colorimetric assay. 30 μg of proteins were separated by SDS-PAGE using precast gels and transferred to membranes using the Trans-Blot Turbo system. Membranes were blocked for 1 hour in a 5% dry milk, TBS-Tween20 solution and incubated with primary antibodies overnight at 4° C. Membranes were incubated for at least 1 hour with secondary antibodies, either goat anti-mouse or goat anti-rabbit conjugated with peroxidase. Chemiluminescence was determined using the Clarity Western ECL Substrate on the Fusion FX imaging system.

Sequence of human CTPS1 (P17812 whole entry): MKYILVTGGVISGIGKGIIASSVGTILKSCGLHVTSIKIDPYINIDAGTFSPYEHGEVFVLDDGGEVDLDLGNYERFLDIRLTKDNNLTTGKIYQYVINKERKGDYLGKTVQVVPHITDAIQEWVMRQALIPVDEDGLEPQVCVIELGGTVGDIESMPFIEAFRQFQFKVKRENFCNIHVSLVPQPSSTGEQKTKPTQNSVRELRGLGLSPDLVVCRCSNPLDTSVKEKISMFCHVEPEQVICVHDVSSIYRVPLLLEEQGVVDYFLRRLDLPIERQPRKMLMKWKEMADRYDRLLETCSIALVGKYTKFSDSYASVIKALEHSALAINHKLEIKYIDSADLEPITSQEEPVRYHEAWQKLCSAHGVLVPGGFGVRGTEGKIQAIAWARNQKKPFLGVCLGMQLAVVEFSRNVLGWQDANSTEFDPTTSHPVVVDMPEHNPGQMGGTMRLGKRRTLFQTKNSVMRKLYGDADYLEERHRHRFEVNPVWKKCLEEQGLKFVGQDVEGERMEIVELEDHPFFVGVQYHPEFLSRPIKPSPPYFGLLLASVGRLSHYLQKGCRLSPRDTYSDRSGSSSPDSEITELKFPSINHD

| SMILES | IC50 (human CTPS1) | Selectivity (human CTPS1 versus CTPS2) | BCL2 transcripts [1] | MCL1 transcripts [1] | BCL2 protein [2] | MCL1 protein [2] |
| --- | --- | --- | --- | --- | --- | --- |
| CCOc1cncc(-c2ccc(NC(=O)C3(c4ccnc(NS(=O)(=O)CC)n4)CCOCC3)nc2)n1 [CTPS1-IB, N-(5-(6-ethoxypyrazin-2-yl)pyridin-2-yl)-4-(2-(ethylsulfonamido)pyrimidin-4-yl)tetrahydro-2H-pyran-4-carboxamide] | ≤ 0.1 µM | >60 fold |  |  |  |  |
| CCOc1cncc(-c2ccc(NC(=O)C3(c4ccnc(NS(=O)(=O)C5CC5)n4)CCOCC3)nc2)n1 [CTPS1-IA, 4-(2-(cyclopropanesulfonamido)pyrimidin-4-yl)-N-(5-(6-ethoxypyrazin-2-yl)pyridin-2-yl)tetrahydro-2H-pyran-4-carboxamide] | ≤ 0.1 µM | >60 fold | increase | decrease | increase | decrease |
